This is an account of results in patent publication US20240270762A1, “PENICILLIN-BINDING PROTEIN INHIBITORS” (priority 2021, published 2024).

One experiment deals with P. aeruginosa CDC-0090. As to the kind of experiment: microbe, parasite or virus in culture. It is filed as cell-based. The settings on record: Pseudomonas aeruginosa, CDC0090, read-out: Minimum inhibitory concentration, P. aeruginosa CDC-0090.
The test system of a further experiment is A. baumannii ATCC 19606. Description: microbe, parasite or virus in culture. Format: cell-based. The following applies: Acinetobacter baumannii, ATCC19606, read-out: MIC, A. baumannii ATCC 19606.
In another experiment the test system is N. gonorrhoeae FA1090. Description: Liquid broth MIC in Fastidious broth. The following applies: Neisseria gonorrhoeae, FA1090, read-out: Minimum Inhibitory Concentration, FA 1090.
The subject of another experiment is N. gonorrhoeae WHO X. Description: Liquid broth MIC in Fastidious broth. The settings on record: Neisseria gonorrhoeae, read-out: Minimum Inhibitory Concentration, WHO X.
The test system of a further experiment is N. gonorrhoeae WHO Z. Description: Liquid broth MIC in Fastidious broth. The settings on record: Neisseria gonorrhoeae, read-out: Minimum Inhibitory Concentration, WHO Z.
Experiment [1] deals with P. aeruginosa (ΔmexAB-oprM). Description: Broth microdilution MIC in iron-depleted CAMHB (IDM). It is filed as cell-based. The following applies: Pseudomonas aeruginosa; iron-depleted CAMHB (IDM); […]; read-out: Minimum inhibitory concentration, P. aeruginosa ΔmexAB-oprM.
Another experiment has as its system A. baumannii CDC-0083. Description: microbe, parasite or virus in culture. It is filed as cell-based. The settings on record: Acinetobacter baumannii, CDC0083, read-out: MIC, A. baumannii CDC-0083.
A further experiment concerns P. aeruginosa ATCC 35151. As to the kind of experiment: microbe, parasite or virus in culture. Format: cell-based. The settings on record: Pseudomonas aeruginosa, ATCC35151, read-out: Minimum inhibitory concentration, P. aeruginosa ATCC 35151.
The target of experiment [2] is T1, PBP3 from Pseudomonas aeruginosa (PAO1) (Pseudomonas aeruginosa, UniProt G3XD46).
T1 construct: made in house
Description: Bocillin-FL fluorescence polarization competition binding, P. aeruginosa PBP3. The following applies: Binding affinity to P. aeruginosa PBP3; fluorescence polarization competition binding assay using Bocillin-FL; read-out: P. aeruginosa PBP3 Potency. The procedure, abridged: (§1)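 Purified PBP was preincubated with inhibitor (E. coli PBP3 1.5 μM, 30 min; P. aeruginosa PBP3 0.75 μM, A. baumannii PBP3 0.2 μM and PBP1a 1 μM, 15 min), then Bocillin-FL (0.1 μM; 0.05 μM for PBP1a) added and FP read up to 60 min. EC50 = 50% loss of bound probe.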
For orientation: Fluorescence polarisation rises when a labelled molecule tumbles more slowly, as on binding a larger partner.

A further experiment deals with N. gonorrhoeae WHO M. As to the kind of experiment: Liquid broth MIC in Fastidious broth. The following applies: Neisseria gonorrhoeae, read-out: Minimum Inhibitory Concentration, WHO M.
The test system of the next experiment is N. gonorrhoeae CDC-0197. Description: Liquid broth MIC in Fastidious broth. The following applies: Neisseria gonorrhoeae, CDC0197, read-out: Minimum Inhibitory Concentration, CDC-0197.
A further experiment relates to N. gonorrhoeae WHO K. As to the kind of experiment: Liquid broth MIC in Fastidious broth. The settings on record: Neisseria gonorrhoeae, read-out: Minimum Inhibitory Concentration, WHO K.
Experiment [3] concerns the target T2, PBP3 from Escherichia coli (K-12) (Escherichia coli, UniProt P0AD68).
T2 construct: made in house
Description: Bocillin-FL fluorescence polarization competition binding, E. coli PBP3. The procedure, abridged: as §1

The test system of experiment [4] is B. humptydooensis ATCC BAA-2767. As to the kind of experiment: microbe, parasite or virus in culture. It is filed as cell-based. The settings on record: Burkholderia humptydooensis, ATCCBAA2767, read-out: Minimum inhibitory concentration (MIC), B. humptydooensis ATCC BAA-2767.
In another experiment the test system is N. gonorrhoeae WHO L. As to the kind of experiment: Liquid broth MIC in Fastidious broth. The settings on record: Neisseria gonorrhoeae, read-out: Minimum Inhibitory Concentration, WHO L.

Structures are written as SMILES. Values after ≈ are worked out from the molar mass of the structure shown. Some results are limits rather than exact numbers.

T1 sequence (G3XD46 whole entry): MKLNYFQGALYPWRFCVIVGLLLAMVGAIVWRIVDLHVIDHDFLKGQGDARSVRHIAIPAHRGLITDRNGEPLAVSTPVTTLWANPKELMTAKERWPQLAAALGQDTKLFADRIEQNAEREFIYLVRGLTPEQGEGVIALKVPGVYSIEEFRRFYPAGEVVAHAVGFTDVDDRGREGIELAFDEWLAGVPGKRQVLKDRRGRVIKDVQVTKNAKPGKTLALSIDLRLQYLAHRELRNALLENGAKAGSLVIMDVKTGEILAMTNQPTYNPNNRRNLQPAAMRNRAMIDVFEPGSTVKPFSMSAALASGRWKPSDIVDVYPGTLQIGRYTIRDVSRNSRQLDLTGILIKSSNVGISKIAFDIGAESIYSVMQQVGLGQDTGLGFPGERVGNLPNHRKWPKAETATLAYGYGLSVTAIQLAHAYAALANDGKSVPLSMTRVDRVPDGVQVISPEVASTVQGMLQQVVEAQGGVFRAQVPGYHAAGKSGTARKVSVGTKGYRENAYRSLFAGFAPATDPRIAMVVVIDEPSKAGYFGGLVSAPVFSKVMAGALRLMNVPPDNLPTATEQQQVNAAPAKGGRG
T2 sequence (P0AD68 1-577): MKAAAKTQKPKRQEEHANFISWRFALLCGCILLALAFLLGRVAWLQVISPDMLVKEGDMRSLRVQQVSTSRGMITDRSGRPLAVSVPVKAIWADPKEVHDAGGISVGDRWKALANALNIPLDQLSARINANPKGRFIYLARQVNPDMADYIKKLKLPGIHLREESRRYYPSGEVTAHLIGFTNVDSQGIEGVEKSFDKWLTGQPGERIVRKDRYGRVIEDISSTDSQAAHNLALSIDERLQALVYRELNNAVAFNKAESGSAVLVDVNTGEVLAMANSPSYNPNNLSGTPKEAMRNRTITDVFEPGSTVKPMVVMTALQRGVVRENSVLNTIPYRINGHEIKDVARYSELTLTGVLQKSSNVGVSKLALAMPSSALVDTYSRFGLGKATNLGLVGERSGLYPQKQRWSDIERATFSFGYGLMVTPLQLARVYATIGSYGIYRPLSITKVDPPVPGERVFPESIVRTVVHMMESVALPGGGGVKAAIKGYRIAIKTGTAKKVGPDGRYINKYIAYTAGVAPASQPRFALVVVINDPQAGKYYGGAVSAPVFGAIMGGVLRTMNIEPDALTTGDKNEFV

One may read the EC50 as the concentration giving half of the maximal effect. The low end stands for a more potent agent, the high end for a less potent agent. `O=C(O)c1c(F)ccc2c1OB(O)[C@@H](NC(=O)C(NC(=O)N1CCN(S(=O)(=O)CCCNC(=O)[C@@H]3CCCN3)C1=O)c1cc(F)c(O)c(O)c1Cl)C2` (stereo partly drawn) [Example 275, (3R)-3-(2-(2-chloro-5-fluoro-3,4-dihydroxyphenyl)-2-(2-oxo-3-((3-((S)-pyrrolidine-2-carboxamido)propyl)sulfonyl)imidazolidine-1-carboxamido)acetamido)-7-fluoro-2-hydroxy-3,4-dihydro-2H-benzo[e][1,2]oxaborinine-8-carboxylic acid]: the MIC in the experiment with P. aeruginosa CDC-0090 is 8 to 16 µg/mL (≈ 10.4 to 20.7 µM); with A. baumannii ATCC 19606, under 1 µg/mL; in the experiment on N. gonorrhoeae FA1090, 4 to 8 µg/mL (≈ 5.18 to 10.4 µM); in the experiment on N. gonorrhoeae WHO X it was over 64 µg/mL; in the experiment on N. gonorrhoeae WHO Z it was 16 to 32 µg/mL (≈ 20.7 to 41.4 µM); in experiment [1], under 1 µg/mL. The MIC in the experiment on A. baumannii CDC-0083 is 2 to 4 µg/mL (≈ 2.59 to 5.18 µM); with P. aeruginosa ATCC 35151, under 1 µg/mL; with N. gonorrhoeae WHO M, 16 to 32 µg/mL (≈ 20.7 to 41.4 µM); with N. gonorrhoeae CDC-0197, 16 to 32 µg/mL (≈ 20.7 to 41.4 µM); in the experiment on N. gonorrhoeae WHO K, over 64 µg/mL; in experiment [4] it was under 1 µg/mL. The MIC with N. gonorrhoeae WHO L is over 64 µg/mL. Also, in [2], the IC50 is under 10 µM. For the same molecule, the EC50 in experiment [3] was in the range of 10 to 50 µM.

On to `O=C(NCCCS(=O)(=O)N1CCN(C(=O)NC(C(=O)N[C@H]2Cc3ccc(F)c(C(=O)O)c3OB2O)c2cc(F)c(O)c(O)c2Cl)C1=O)Nc1ccc(O)cc1` (stereo partly drawn) [Example 276, (3R)-3-(2-(2-chloro-5-fluoro-3,4-dihydroxyphenyl)-2-(3-((3-(3-(4-hydroxyphenyl)ureido)propyl)sulfonyl)-2-oxoimidazolidine-1-carboxamido)acetamido)-7-fluoro-2-hydroxy-3,4-dihydro-2H-benzo[e][1,2]oxaborinine-8-carboxylic acid], for which the MIC in the experiment with P. aeruginosa CDC-0090 is under 1 µg/mL; in the experiment on A. baumannii ATCC 19606 it was under 1 µg/mL; with N. gonorrhoeae FA1090 it was 1 to 2 µg/mL (≈ 1.23 to 2.47 µM); in the experiment on N. gonorrhoeae WHO X it was over 64 µg/mL; with N. gonorrhoeae WHO Z, 4 to 8 µg/mL (≈ 4.93 to 9.87 µM); in experiment [1] it was under 1 µg/mL. Further, the MIC was under 1 µg/mL in the experiment with A. baumannii CDC-0083; under 1 µg/mL in the experiment with P. aeruginosa ATCC 35151; 4 to 8 µg/mL (≈ 4.93 to 9.87 µM) in the experiment with N. gonorrhoeae WHO M; 16 to 32 µg/mL (≈ 19.7 to 39.5 µM) with N. gonorrhoeae CDC-0197; over 64 µg/mL in the experiment with N. gonorrhoeae WHO K; 32 to 64 µg/mL (≈ 39.5 to 78.9 µM) in experiment [4]. Further, the MIC in the experiment with N. gonorrhoeae WHO L is over 64 µg/mL. Further, the IC50 in experiment [2] was under 10 µM. The molecule also displayed an EC50 in experiment [3] of under 10 µM.
